In patent US10830762B2, “Compositions and methods for inducing conformational changes in cereblon and other E3 ubiquitin ligases” (Celgene Corporation, priority 2015, dated 2020):
Values belong to the compound of their own block, whether it stands above or below them.

Legend:
[1] = system: TMD8 (ABC) or Karpas 422 (GCB) cells; experiment: 3H-thymidine incorporation proliferation assay with lenalidomide co-treatment; assay type: cell-based
[2] = target: T1, CRBN (Homo sapiens, UniProt Q96SW2, E377V); experiment: Thalidomide analog bead assay with extracts of DF15R cells re-expressing wild type or mutant CRBN; assay type: binding; conditions: CRBN E377V mutant; preincubation of cell extracts with free compound
T1 construct: re-express full length wild type (CRBN^WT); expressed in transfected cells; host or cells: DF15R (CRBN-deficient myeloma) cells, lentiviral transduction, cell extract
Method: (§1) DF15, DF15R or DF15R derived cell line extracts were prepared in NP 40 lysis buffer (0.5% NP40, 50 mM Tris HCl (pH 8.0), 150 mM NaCl, 0.5 mM DTT, 0.25 mM PMSF, 1× protease inhibitor mix (Roche, Indianapolis, Ind.) at approximately 2×10^8 cells per ml […]. Cell debris and nucleic acids were cleared by centrifugation (14,000 rpm 30 min 4° C.). In competition experiments 0.5 ml (3-5 mg protein) aliquots of the resulting extracts were preincubated (15 min room temp.) with 5 μl DMSO (control) or 5 μl compound at varying concentrations in DMSO. Thalidomide analog-coupled beads (0.3-0.5 mg) were added to protein extracts and samples rotated (2 hours, 4° C.). Beads were washed three times with 0.5 ml NP40 buffer, and then bound proteins were eluted with SDS-PAGE sample buffer.
(§2) Cell extracts from these lines were then used to assay the ability of CRBN to bind immunomodulatory agent compound.
(§3) Cell extracts from this line were used to assay the ability of CRBN^E377V to bind Immunomodulatory agent compound.

[3] = system: DF15R myeloma cells; experiment: Cell proliferation assay of DF15R cells re-expressing wild type or mutant CRBN treated with pomalidomide; assay type: cell-based
Method: (A) Cell lines re-expressing full-length CRBN wild-type. W386A or W400A mutants were tested for the ability to bind immunomodulatory agent compounds. Assay was repeated at least three times. Representative Western blot of representative experiment is shown. (B) Cell proliferation assay of DF15 (sensitive). DF15R (resistant; CRBN^null), CRBNWT, CRBNW386A; CRBN400 cells treated with a dose response of pomalidomide. Assays were done in triplicate and error bars representative s.d. Data for each cell line was normalized to treatment with vehicle (DMSO). (C) Western blots of key downstream effectors of immunomodulatory agent resistance.
(A) Cell lines re-expressing RFP or full length CRBN wild type or E377V mutant were tested for the ability of CRBN proteins to bind immunomodulatory agent compounds. Assay was repeated at least three times. Representative Western blot of representative experiment is shown. (B) Cell proliferation assay of DF15 (sensitive), DF15R (resistant; CRBN^null), CRBN^WT, CRBN^E377V cells treated with a dose response of pomalidomide. Assays were done in triplicate and error bars represent s.d. Data for each cell line was normalized to treatment with vehicle (DMSO).
The antiproliferative effect of immunomodulatory agent compounds on myeloma cells is mediated through CRBN protein. […]

[4] = system: H929 and U266 multiple myeloma cell lines; experiment: Cell viability by flow cytometry in CRBN inducible shRNA knockdown cells; assay type: cell-based; conditions: CRBN inducible knockdown vs shControl; 5 day treatment
Method: (A) An inducible shRNA construct targeting CRBN or a control construct was transduced into the multiple myeloma cell lines H929 and U266. Inducible shRNA expression (marked by turbo-RFP) was monitored by flow cytometry over a period of 1 to 9 days as indicated in the histograms (Top row). […] (B) CRBN protein expression was quantified by Western blotting. […] (D)-(F) After 9 days of shRNA inducible knock-down, cells were treated with increasing doses of pomalidomide and compound effect in cell viability was assayed by flow cytometry after 5 day treatment. […] Data are shown as mean of three independent experiments±s.d.
Inducible shRNA constructs targeting CRBN or a control construct (Open Biosystems) were transduced using spinoculation methodology into the multiple myeloma cell lines H929 and U266. Stably transduced cells were selected with puromycin. Inducible shRNA expression (marked by RFP) was monitored by fluorescence microscopy and flow cytometry using 1 μg/mL doxycycline. CRBN protein expression was quantified by Western blotting. Cell proliferation and viability were assessed by 7AAD/flow cytometry assays.

[5] = system: human PBMCs; experiment: IL2 release co-stimulation in human PBMCs treated with anti-CD3; assay type: cell-based
[6] = system: mouse splenocytes; experiment: IL2 induction in mouse splenocytes / mouse PBMC treated with anti-CD3; assay type: cell-based
From the text: Data are shown as mean±s.d. (B) Costimulation of IL2 release by anti-CD28 (squares) or pomalidomide (circles) in mouse PBMC treated with anti-CD3. Data are shown as mean±s.d.

[7] = target: MBP-IKZF1 (a.a. 140-168) / CRBN-DDB1 (Homo sapiens, UniProt Q13422+Q96SW2); conditions: 100 uM compound; IKZF1 domain with one predicted zinc finger
[8] = target: CRBN (Homo sapiens, UniProt Q96SW2); experiment: Thalidomide analog bead assay with extracts of DF15R cells re-expressing wild type or mutant CRBN; assay type: binding; design: re-express full length wild type (CRBN^WT); expressed in transfected cells; host or cells: DF15R (CRBN-deficient myeloma) cells, lentiviral transduction, cell extract; conditions: recombinant CRBN WT expressed in DF15R; preincubation of cell extracts with free compound
Method: as §1, §2, §3

Compound: Cc1nc2cccc(N)c2c(=O)n1C1CCC(=O)NC1=O (stereo not drawn) [Compound A, 3-(5-amino-2-methyl-4-oxo-4H-quinazolin-3-yl)-piperidine-2,6-dione]
anti-proliferative effects on co-treatment with lenalidomide ([1]; co-treatment with 10 μM lenalidomide, 3H-thymidine incorporation): blocks anti-proliferative effects

Compound: Nc1cccc2c1CN(C1CCC(=O)NC1=O)C2=O (stereo not drawn) [lenalidomide, 3-(4-amino-1-oxo-1,3-dihydro-isoindol-2-yl)-piperidine-2,6-dione, reference compound]
competition for CRBN ([1]; co-culture with Compound A or Compound C): competes with Compound A and Compound C for CRBN

competition for CRBN binding to thalidomide analog-beads [2]: competed
pull down of CRBN-DDB1 by minimal IKZF1 domain [7]: sufficient to pull down CRBN-DDB1
competition for CRBN binding to thalidomide analog-beads [8]: competed for binding to the beads
Compound: Nc1cccc2c1C(=O)N(C1CCC(=O)NC1=O)C2=O (stereo not drawn) [pomalidomide]
antiproliferative sensitivity ([3]; DF15R re-expressing CRBN E377V): unable to rescue sensitivity
antiproliferative effect ([3]; DF15R re-expressing CRBN WT): regained antiproliferative effect
anti-proliferative effects in CRBN knockdown cells [4]: reduced anti-proliferative effects
IL2 release [5]: Co-stimulation of IL2 release
IL-2 induction [6]: resistant to the IL-2 inducing effects

competition for CRBN binding to thalidomide analog-beads [2]: competed
competition for CRBN binding to thalidomide analog-beads [8]: competed for binding to the beads
Compound: O=C1CCC(N2C(=O)c3ccccc3C2=O)C(=O)N1 (stereo not drawn) [thalidomide]
